These results are taken from patent US20140309192A1, “MODULATORS OF THE G PROTEIN-COUPLED MAS RECEPTOR AND THE TREATMENT OF DISORDERS RELATED THERETO” (ARENA PHARMACEUTICALS, INC., priority 2011, published 2014).

Data set [1] deals with isolated perfused rat hearts. As to the kind of experiment: Global ischemia-reperfusion in Langendorff perfused rat hearts (coronary flow, arrhythmias). How it is done: For ischemia-reperfusion experiments, Langendorff perfused rat hearts were equilibrated for 20 min and then baseline coronary flow was recorded for 10 min Thereafter, all hearts were subjected to 30 min of global ischemia by stopping perfusate flow, followed by 30 min of reperfusion with either vehicle (0.01% DMSO), Mas agonist AR234960 (1 μM) or Mas inverse agonist AR244555 (5 μM) added to the perfusion buffer. Electrocardiography was also continuously recorded during the observation period through electrodes attached directly to the surface of the ventricles to detect cardiac arrhythmias during reperfusion.

The target in data set [2] is T1, human Mas receptor (Homo sapiens, UniProt P04201).
T1 construct: expressed in transfected cells; host or cells: HEK293 (ATCC CRL-1573)
T1 sequence (P04201 1-325): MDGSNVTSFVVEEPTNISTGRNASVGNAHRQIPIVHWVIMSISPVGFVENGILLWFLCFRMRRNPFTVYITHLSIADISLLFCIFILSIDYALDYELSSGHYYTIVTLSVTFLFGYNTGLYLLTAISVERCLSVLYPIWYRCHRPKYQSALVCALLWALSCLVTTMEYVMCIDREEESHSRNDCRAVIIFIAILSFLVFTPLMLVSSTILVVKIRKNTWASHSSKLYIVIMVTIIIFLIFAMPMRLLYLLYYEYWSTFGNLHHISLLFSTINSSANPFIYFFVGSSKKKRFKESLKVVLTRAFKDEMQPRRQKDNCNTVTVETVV
The data set is described as follows: HTRF IP1 assay, HEK293 cells expressing human Mas receptor. Format: cell-based.

Data set [3] addresses T2, rat Mas receptor (Rattus norvegicus, UniProt P12526).
T2 construct: expressed in transfected cells; host or cells: HEK293 (ATCC CRL-1573)
T2 sequence (P12526 1-324): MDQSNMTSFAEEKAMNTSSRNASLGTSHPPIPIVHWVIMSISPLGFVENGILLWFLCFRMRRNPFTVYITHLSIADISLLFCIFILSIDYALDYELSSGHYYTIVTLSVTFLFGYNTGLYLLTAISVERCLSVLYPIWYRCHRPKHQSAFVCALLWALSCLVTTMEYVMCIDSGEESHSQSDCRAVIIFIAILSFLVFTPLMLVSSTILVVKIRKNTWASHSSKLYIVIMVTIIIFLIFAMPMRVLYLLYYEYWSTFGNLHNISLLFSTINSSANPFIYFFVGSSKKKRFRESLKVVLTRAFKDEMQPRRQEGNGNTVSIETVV
As to the kind of experiment: HTRF IP1 assay, HEK293 cells expressing rat Mas receptor. The format is cell-based.

Data set [4] is described as follows: Mean arterial blood pressure in anesthetized rats (Example 4). The following applies: low, medium and high dose i.v.; 25 min after starting dosing. The format is in vivo, rat. Here is the method: Adult rats were anesthetized with sodium pentobarbital (50 mg/kg i.p.) and placed in the supine position on a surgery frame with a heating pad (37° C.) beneath. Rats were tracheostomized and ventilated with a SAR-830 small-animal ventilator (Model 683, Harvard Apparatus) to provide room air at a tidal volume of 2.5 mL/stroke and at a rate of 70 stroke/min. Polyethylene catheters were placed in the right internal carotid artery and the external jugular vein for measurement of mean arterial blood pressure and infusion of drug or vehicle, respectively.
Animals were randomly divided into the following 4 groups: (1-3) low, medium, and high doses of Compound 170 administered by continuous i.v. infusion starting 30 min before coronary artery ligation (n=6 per dose), and (4) 20% HPBCD (vehicle, hydroxypropyl-β-cyclodextrin) administered by continuous i.v. infusion beginning 30 min before coronary artery ligation (n=6). All the rat hearts listed above were used for calculation of myocardial infarct size (see below). Mean arterial blood pressure was measured after stabilization and just prior to drug infusion (baseline) and again following 25 min of drug or vehicle infusion, before coronary artery ligation. […]

Like-named read-outs stand apart in the source and are kept apart here.

As to `COc1cc([N+](=O)[O-])ccc1S(=O)(=O)N1CC(CN2CCN(c3ccccn3)CC2)C(c2cccc(F)c2)C1` (stereo not drawn) [AR234960], the “frequency of prolonged ventricular arrhythmias during reperfusion” value in data set [1] (1 μM, three out of seven hearts) came out at 42.9%. Also, in data set [1] (30 min global ischemia, 30 min reperfusion, AR234960 1 μM, AR244555 5 μM in perfusate during reperfusion), the “coronary flow during reperfusion compared to vehicle treated hearts” value is reported as “trend toward decreased coronary flow”. Further, the IC50 in data set [2] (IP assay, HEK293 cells stably expressing human Mas, 4 h, means ± SEM, read-out: Human IC50) is 351 ± 55 nM; in data set [3] (IP assay, HEK293 cells stably expressing rat Mas, 4 h, means ± SEM, read-out: Rat IC50), 172 ± 9 nM. For the same molecule, the “ligand activity in IP assay, human Mas” value in data set [2] (Table C, line under Human IC50) is given as “(agonist)”. Besides, in data set [3] (Table C, line under Rat IC50), the “ligand activity in IP assay, rat Mas” value is reported as “(agonist)”.
In the case of `NC(=O)[C@H](CO)NCc1ccc(C(=O)Nc2ccc(Cl)cc2N2CCN(CCC(F)(F)F)CC2)c(F)c1F` [Compound 170, (S)-4-((1-Amino-3-hydroxy-1-oxopropan-2-ylamino)methyl)-N-(4-chloro-2-(4-(3,3,3-trifluoropropyl)piperazin-1-yl)phenyl)-2,3-difluorobenzamide], in data set [4], the “mean arterial blood pressure (MAP) compared to vehicle treatment” value is “no significant effect”. Besides, the IC50 was 15.6 nM in data set [2] (HTRF IP1 assay, human Mas receptor (Table B.2), read-out: IC50) and 21.4 nM in data set [3] (HTRF IP1 assay, rat Mas receptor (Table B.1), read-out: IC50).
